Source: paper PMC11740379, “Novel Enyne-Modified 1,4-Thiazepines as Epidermal Growth Factor Receptor Inhibitors: Anticancer and Computational Studies” (ACS Omega, 2024)
Where two headings read alike, the source gives them in different places.

Legend:
[1] = XTT cytotoxicity assay, non-tumorigenic cells; format: cell-based, human; conditions: human, HEK-293 cells (nontumorigenic), read-out: cell viability
Protocol: (§1) Human cell lines for breast cancer (MCF-7), lung cancer (A549), prostate cancer (PC-3), and nontumorigenic HEK-293 were sourced from the Health Protection Agency (U.K.) and the Interlab Cell Line Collection (Italy). The cells were cultured in RPMI medium (Sigma) supplemented with 10% heat-inactivated fetal bovine serum, 1% penicillin, and 1% L-glutamine, and incubated in a humidified CO2 atmosphere at 37 °C.
(§2) To evaluate the cytotoxic effects of TZEPs, which were dissolved in dimethyl sulfoxide (DMSO), the XTT assay (2,3-bis(2-methoxy-4-nitro-5-sulfophenyl)-2H-tetrazolium-5-carboxanilide) was employed. Cells were plated in 96-well plates at a density of 10^4 cells per well and exposed to varying concentrations of TZEPs (ranging from 1 to 250 μM) for 24, 48, and 72 h. Following the incubation, 100 μL of XTT was added to each well, and the plates were incubated for an additional 4 h at 37 °C. The resulting color change was measured by recording the absorbance at 570 nm using a microplate reader (Tecan).
(§3) The IC50 values, which indicate the concentration of the compound required to inhibit 50% of cancer cell proliferation, were determined using Biosoft CalcuSyn 2.1 software. […] Conversely, an SI less than 1 means the drug is more toxic to normal cells than to target cells, which is undesirable in therapeutic contexts. In the literature, a selectivity index of 2 or higher is generally considered significant, implying that the compound selectively targets diseased cells with relatively low toxicity to healthy cells.[15]

HEK-293 cells = assay: XTT cytotoxicity assay, non-tumorigenic cells; format: cell-based, human; conditions: Homo sapiens, HEK293; XTT assay; exposure time of the IC50 not stated (24, 48, 72 h tested)
Protocol: as §1, §2, §3

A549 cells = assay: XTT cytotoxicity assay, lung cancer cells; format: cell-based, human; conditions: for IC50: A549
Protocol: (§4) The cells were cultured in RPMI medium (Sigma) supplemented with 10% heat-inactivated fetal bovine serum, 1% penicillin, and 1% L-glutamine, and incubated in a humidified CO2 atmosphere at 37 °C.
as §2, with “Cells were plated in 96-well plates at a density of 10^4 cells per well and exposed to varying concentrations of TZEPs (ranging from 1 to 250 μM) for 24, 48, and 72 h.” left out
(§5) Conversely, an SI less than 1 means the drug is more toxic to normal cells than to target cells, which is undesirable in therapeutic contexts.

PC-3 cells = assay: XTT cytotoxicity assay, prostate cancer cells; format: cell-based, human
Protocol: as §4
as §2, with “Cells were plated in 96-well plates at a density of 10^4 cells per well and exposed to varying concentrations of TZEPs (ranging from 1 to 250 μM) for 24, 48, and 72 h.” left out
as §5

EGFRWT mRNA = assay: qRT-PCR of EGFR mRNA expression; format: cell-based, human; conditions: vs untreated control
Protocol: To measure the mRNA expression levels of apoptosis-related genes B-cell lymphoma 2 (Bcl-2), Bcl-2-associated X protein (Bax), Cyclin-dependent kinase 2 (CDK2), and Cyclin E, total mRNA was extracted from cells treated with compound 6f using Trizol reagent (Sigma). cDNA was synthesized from the total mRNA using the Qiagen cDNA synthesis kit according to the manufacturer’s instructions. The following primers, each at a concentration of 350 nM, were employed: Bcl-2; forward ([…]), reverse ([…]); Bax; forward ([…]), reverse ([…]); Caspase-8; forward ([…]), reverse ([…]); Caspase-9; forward (TGTCTACGGCACAGATGGA), reverse (GGACTCGTCTTCAGGGGA); EGFRWT: forward ([…]), reverse (CCTGTGCCAGGGACCTTAC−); EGFRT790 M forward ([…]), reverse ([…]); human GAPDH; forward ([…]), reverse (AGATGGTGATGGGCTTCCC). The PCR mix was prepared with 1× buffer containing 0.2 mM dNTPs, 1.6 mM MgCl2, […] of each primer set, cDNA, and 0.25 U Taq polymerase. The PCR conditions were as follows: an initial denaturation at 95 °C for 60 s, followed by 50 cycles of 95 °C for 15 s, 60 °C for 15 s, and 72 °C for 60 s. The cycle threshold (CT) for each replicate was normalized to the average CT of the endogenous control (GAPDH). The relative quantification of gene expression was calculated using the comparative CT method.[17]

EGFRWT kinase = EGFRWT kinase (Homo sapiens, UniProt P00533); assay: EGFR kinase inhibition assay (HTRF KinEASE-TK); format: biochemical
Protocol: The inhibitory effects of the target compounds on various EGFR kinases were assessed using a homogeneous time-resolved fluorescence (HTRF) assay, employing the HTRF KinEASE-TK kit (Cat# 62TK0PEC, Cisbio).[18] TZEP7 was tested at a range of diluted concentrations in the presence of 1% dimethyl sulfoxide (DMSO), with the kinase and compounds preincubated for 5 min. The reactions were initiated by adding ATP and TK-substrate-biotin, followed by a 60 min incubation at room temperature. […] After a 1 h incubation of the plate, readings were taken on a microplate reader under standard HTRF conditions. IC50 values were calculated using GraphPad Prism 5.0 software. Each reaction was duplicated, and at least three independent determinations were conducted. The data were analyzed using GraphPad Prism.

[2] = XTT cytotoxicity assay, non-tumorigenic cells; format: cell-based; conditions: human, HEK-293 cells (nontumorigenic); HEK293, 0.1 μM; read-out: cell viability

EGFRWT kinase, sequence (P00533 25-1210): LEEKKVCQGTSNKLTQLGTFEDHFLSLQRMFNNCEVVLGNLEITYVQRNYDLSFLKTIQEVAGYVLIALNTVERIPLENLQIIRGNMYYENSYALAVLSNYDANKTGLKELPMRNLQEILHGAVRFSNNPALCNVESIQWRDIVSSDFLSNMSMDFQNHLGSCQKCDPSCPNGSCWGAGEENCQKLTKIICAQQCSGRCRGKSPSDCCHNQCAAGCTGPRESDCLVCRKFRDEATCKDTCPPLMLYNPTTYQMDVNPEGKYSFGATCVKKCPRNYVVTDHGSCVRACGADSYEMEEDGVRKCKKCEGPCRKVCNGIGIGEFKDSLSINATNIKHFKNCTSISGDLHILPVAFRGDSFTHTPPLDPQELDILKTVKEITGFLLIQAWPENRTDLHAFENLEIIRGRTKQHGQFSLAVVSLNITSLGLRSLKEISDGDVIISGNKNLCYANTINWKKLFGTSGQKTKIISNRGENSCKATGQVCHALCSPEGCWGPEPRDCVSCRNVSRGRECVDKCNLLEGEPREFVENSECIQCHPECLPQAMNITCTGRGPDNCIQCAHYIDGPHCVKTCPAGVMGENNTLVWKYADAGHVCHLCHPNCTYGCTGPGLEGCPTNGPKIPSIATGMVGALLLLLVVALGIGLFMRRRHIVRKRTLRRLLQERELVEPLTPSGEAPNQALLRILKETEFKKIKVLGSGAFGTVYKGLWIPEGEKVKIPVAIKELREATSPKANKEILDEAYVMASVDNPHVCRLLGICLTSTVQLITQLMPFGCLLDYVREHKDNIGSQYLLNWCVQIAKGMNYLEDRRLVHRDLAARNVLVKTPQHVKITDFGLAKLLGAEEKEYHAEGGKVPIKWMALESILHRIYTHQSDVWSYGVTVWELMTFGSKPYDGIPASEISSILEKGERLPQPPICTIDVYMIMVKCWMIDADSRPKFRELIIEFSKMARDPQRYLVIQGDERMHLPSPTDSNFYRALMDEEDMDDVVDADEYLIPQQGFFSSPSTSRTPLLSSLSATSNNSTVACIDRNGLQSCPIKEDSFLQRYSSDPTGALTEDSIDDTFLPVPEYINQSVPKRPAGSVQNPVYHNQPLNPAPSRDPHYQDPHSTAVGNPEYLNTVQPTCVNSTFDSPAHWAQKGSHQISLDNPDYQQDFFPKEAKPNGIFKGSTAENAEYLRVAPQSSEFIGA

With `Cc1cc(C2=NCC(=CC#Cc3ccccc3)SC(c3ccc(Cl)cc3)=C2)ccc1F` [TZEP7] as the compound, how does the viability at 1 µM ([1]; HEK293, 1 μM) read?
Its viability at 1 µM is 57.1%.

And the viability at 10 µM ([1]; HEK293, 10 μM)?
Its viability at 10 µM is 44.1%.

And the viability at 50 µM ([1]; HEK293, 50 μM)?
Its viability at 50 µM is 31.3%.

What about the viability at 100 µM ([1]; HEK293, 100 μM) of the same compound?
The viability at 100 µM was 24.2%.

What about the IC50 (HEK-293 cells) of the same compound?
The IC50 was 54.3 ± 0.9 µM.

And the IC50 (A549 cells; Homo sapiens, XTT assay, exposure time of the IC50 not stated (24, 48, 72 h tested), read-out: IC50, lung cancer (A549))?
The IC50 was 12.7 ± 2 µM.

And the IC50 (A549 cells; Homo sapiens, dose–response curve of Figure 2, read-out: IC50, A549, dose–response curve)?
The IC50 was 12.1 µM.

What about the viability at 0.1 µM (A549 cells; Homo sapiens, A549, 0.1 μM, read-out: cell viability) of the same compound?
The viability at 0.1 µM was 68%.

And the viability at 1 µM (A549 cells; Homo sapiens, A549, 1 μM, read-out: cell viability)?
Its viability at 1 µM is 53%.

What about the viability at 10 µM (A549 cells; Homo sapiens, A549, 10 μM, read-out: cell viability) of the same compound?
Its viability at 10 µM is 40%.

What about the viability at 50 µM (A549 cells; Homo sapiens, A549, 50 μM, read-out: cell viability) of the same compound?
The viability at 50 µM was 30%.

And the viability at 100 µM (A549 cells; Homo sapiens, A549, 100 μM, read-out: cell viability)?
Its viability at 100 µM is 10%.

And the “Selectivity index (SI), lung cancer (A549)” value (A549 cells; versus normal cells HEK-293)?
Its value is 4.27.

And the IC50 (PC-3 cells; Homo sapiens, PC-3, XTT assay, exposure time of the IC50 not stated (24, 48, 72 h tested), read-out: IC50, prostate cancer (PC-3))?
The IC50 was 16.9 ± 1.6 µM.

And the viability at 0.1 µM (PC-3 cells; Homo sapiens, PC-3, 0.1 μM, read-out: cell viability)?
Its viability at 0.1 µM is 83%.

And the viability at 1 µM (PC-3 cells; Homo sapiens, PC-3, 1 μM, read-out: cell viability)?
The viability at 1 µM was 71%.

What about the viability at 10 µM (PC-3 cells; Homo sapiens, PC-3, 10 μM, read-out: cell viability) of the same compound?
The viability at 10 µM was 22%.

What about the viability at 50 µM (PC-3 cells; Homo sapiens, PC-3, 50 μM, read-out: cell viability) of the same compound?
Its viability at 50 µM is 18%.

And the viability at 100 µM (PC-3 cells; Homo sapiens, PC-3, 100 μM, read-out: cell viability)?
Its viability at 100 µM is 12%.

What about the “Selectivity index (SI), prostate cancer (PC-3)” value (PC-3 cells; versus normal cells HEK-293) of the same compound?
The value was 3.21.

And the “downregulation of EGFRWT mRNA” value (EGFRWT mRNA; A549, 72 h)?
The value was 4.6 fold.

What about the “downregulation of EGFRWT mRNA” value (EGFRWT mRNA; MCF-7, 72 h) of the same compound?
Its value is 3.8 fold.

And the “downregulation of EGFRWT mRNA” value (EGFRWT mRNA; PC-3, 72 h)?
The value was 3.4 fold.

What about the IC50 (EGFRWT kinase) of the same compound?
The IC50 was 0.38 µM.

And the IC50 (EGFRWT kinase; A549 cells)?
The IC50 was 0.36 µM.

What about the viability at 0.1 µM [2] of the same compound?
Its viability at 0.1 µM is 87.3%.
